Laboratory results as given in patent publication US7691869B2, “Pyrrolotriazolopyrimidine derivatives, pharmaceutical compositions containing them and methods of treating conditions and diseases mediated by the adenosine A2A receptor activity” (King Pharmaceuticals Research and Development, Inc., priority 2008, dated 2010).

Assays:
[1] = target: T1, human adenosine A2A receptor (Homo sapiens, UniProt P29274); assay: Human cloned A2A adenosine receptor binding assay ([3H]ZM241385 displacement, CHO membranes); settings: [3H]ZM241385, CHO cells transfected with human recombinant A2A receptors
T1 construct: expressed in transfected cells; host or cells: CHO cells (membrane preparation)
Method: CHO Membranes Preparation
The human adenosine receptors have been transfected in CHO cells according with the method previously described by Klotz et al. (Naunyn-Schmied. Arch Pharm. 1998, 357: 1-9). Briefly, the cells are grown adherently and maintained in Dulbecco's Modified Eagles Medium with nutrient mixture F12 (DMEM/F12) without nucleosides, containing 10% fetal calf serum, penicillin (100 U/mL), streptomycin (100 μg/mL), L-glutamine (2 mM) and Geneticin (G418, 0.2 mg/ml) at 37° C. in 5% CO2/95% air. For membrane preparation the culture medium is removed and the cells are ished with phosphate-buffered saline and scraped off T75 flasks in ice-cold hypo tonic buffer (5 mM Tris HCl, 1 mM EDTA, pH 7.4). The cell suspension is homogenized with Polytron, the homogenate is spun for 10 min at 1000×g and the supernatant is then centrifuged for 30 min at 100,000×g. […]
All new synthesized compounds have been tested to evaluate their affinity to human A1, A2A, A2B and A3 adenosine receptors. […] Non-specific binding is determined in the presence of 10 μM of CHA and this is always ≦10% of the total binding. […] Non-specific binding is determined in the presence of 1 μM ZM 241385 and is about 20% of total binding. […] Bound and free radioactivity are separated by filtering the assay mixture through Whatman GF/B glass fiber filters using a Micro-Mate 196 cell harvester (Packard Instrument Co.). The filter bound radioactivity is counted on a Top Count (efficiency 57%) with Micro-Scint 20.
The protein concentration is determined according to a Bio-Rad method (Bradford, Anal Biochem. 1976, 72: 248-254) with bovine albumin as a standard reference. Inhibitory binding constant, Ki, values are calculated from those of IC50 according to Cheng & Prusoff equation (Biochem. Pharmacol. 1973, 22: 3099-3108): Ki=IC50/(1+[C*]/KD*) where [C*] is the concentration of the radioligand and KD* its dissociation constant. […] Data are expressed as geometric mean with 95% confidence limits in parentheses.

6-OHDA lesion rats = assay: 6-OHDA lesion of the middle forebrain bundle in rats, Protocol B (apomorphine-induced rotation); format: in vivo, rat; settings: 30 mg/kg single i.p. dose; threshold dose of apomorphine 0.02 mg/kg i.p.; significant increase, p≦0.05; FIG. 1
Method: Adult male Sprague-Dowley rats (Harlan UK ltd., Bicester, Oxon, UK), weighing 255±15 g, are used in all experiments. The rats are housed in groups of up to 5 per cage, and the animals are fed an expanded rodent diet of RM1(E) SQC (Special Diets Services, Witham, UK) ab libitum, and allowed free access to water, under controlled temperature and 12 hour light-dark cycle.
The test compounds are formulated for dosing by initially wet grinding a known amount in approximately 10% of the final volume of vehicle, i.e., propylene glycol/polyethylene glycol (PEG400)/glucose (D5W)-15/15/70 v %, in a mortal and pestle. Once suitably wetted, approximately 30% of the remaining vehicle is added, stirred for up to 10 min, and then sonicated for approximately 5 min. This step is repeated twice, using remaining vehicle to provide even suspensions of 0.6, 2 and 6 mg/mL. No correction factor is applied. All test substance formulations are clear to light tan colored suspensions, stored at RT and protected from light until dosing. The dose volume for the test compounds is 5 mL/kg to provide dosages of 3, 10 and 30 mg/kg, respectively.
Apomorphine hydrochloride (HCl) hemihydrate (Sigma, UK) is formulated for dosing by dissolving a known amount in 0.9% w/v sodium chloride (Baxter Healthcare Ltd., UK) to produce a clear, colorless solution of 0.02 mg/mL. […]

T1 sequence (P29274 whole entry): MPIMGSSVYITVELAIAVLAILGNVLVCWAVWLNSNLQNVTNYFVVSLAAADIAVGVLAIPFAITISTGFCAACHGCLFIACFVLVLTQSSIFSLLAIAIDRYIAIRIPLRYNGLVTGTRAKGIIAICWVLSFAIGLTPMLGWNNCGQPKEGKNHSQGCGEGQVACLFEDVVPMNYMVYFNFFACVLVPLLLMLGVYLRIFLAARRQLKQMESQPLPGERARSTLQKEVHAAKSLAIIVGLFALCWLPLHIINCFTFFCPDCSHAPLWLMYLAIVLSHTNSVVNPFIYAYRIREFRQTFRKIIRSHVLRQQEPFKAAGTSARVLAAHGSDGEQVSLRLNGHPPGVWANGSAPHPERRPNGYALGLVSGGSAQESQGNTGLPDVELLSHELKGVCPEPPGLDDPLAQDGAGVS

SMILES	Ki [1] [nM]	number of contralateral rotations (6-OHDA lesion rats)
Nc1nc2c(ccn2CCN2CCN(C(=O)c3ccc(F)cc3F)CC2)c2nc(-c3ccco3)nn12 [Example 4, (4-(2-(5-Amino-2-(furan-2-yl)-7H-pyrrolo[3,2-e][1,2,4]triazolo[1,5-c]pyrimidin-7-yl)ethyl)piperazin-1-yl)(2,4-difluorophenyl)methanone]	~1	–
CN(CCN(C)c1ccc(F)cc1F)CCn1ccc2c1nc(N)n1nc(-c3ccco3)nc21 [Example 29, N^1-(2-(5-Amino-2-(furan-2-yl)-7H-pyrrolo[3,2-e][1,2,4]triazolo[1,5-c]pyrimidin-7-yl)ethyl)-N^2-(2,4-difluorophenyl)-N^1,N^2-dimethylethane-1,2-diamine]	~28	–
Nc1nc2c(ccn2CCN2CCN(c3ccc(F)cc3F)CC2)c2nc(-c3ccco3)nn12 [Example 30, 7-(2-(4-(2,4-Difluorophenyl)piperazin-1-yl)ethyl)-2-(furan-2-yl)-7H-pyrrolo[3,2-e][1,2,4]triazolo[1,5-c]pyrimidin-5-amine]	~5	228±38
